Reference: patent US20240261242A1, “METHODS OF INTRAVENOUSLY ADMINISTERING SOTALOL” (AltaThera Pharmaceuticals LLC, priority 2018, published 2024)

Assays:
[1] = example IV sotalol treatment protocols with QTc interval monitoring; format: in vivo, human
Description: An example sotalol treatment protocol for a patient experiencing AF and who is currently in normal sinus rhythm (which patient could have resumed normal sinus rhythm spontaneously, or by way of chemical cardioversion, or electrocardioversion) is described herein. The patient is admitted to a hospital or other facility capable of providing cardiac resuscitation and continuous electrocardiographic monitoring. The patient's creatinine clearance is determined to be 60-89 mL/min (mild renal impairment). The patient is connected to an electrocardiographic and an initial QTc is determined to be less than 450 ms. If the patient were to be administered multiple sequential oral doses, the physician would have selected an oral sotalol dosing regimen of 80 mg at a 12-hour interval. However, due to the patient's NPO status, the physician determines the patient should instead be administered an IV sotalol dosing regimen as a substitute for the selected oral dosing regimen. IV doses in an amount of 75 mg sotalol hydrochloride are administered to the patient at 12-hour interval as a substitute for oral dosing. It is noted that notwithstanding the patient's mild kidney impairment, no adjustment to the IV dosing amount or interval is made. That is, even though the patient's CrCl is lower than normal, neither the dose is adjusted lower nor the dosing interval increased to accommodate for the mild renal impairment. The 75 mg IV dose is administered to the patient over a period of 5 hours. The patient's QTc interval is measured, along with heart rate and blood pressure at selected times to ensure that the patient is tolerating the drug. […] Once it is determined that the patient/subject is capable of tolerating the sotalol, one or more subsequent doses of sotalol hydrochloride in an amount of 75 mg is administered to the subject at a 12-hour interval. The patient's QTc interval can continue to be monitored.
An example sotalol treatment protocol for a patient experiencing VT who is not currently in normal sinus rhythm is described herein. The patient is admitted to a hospital or other facility capable of providing cardiac resuscitation and continuous electrocardiographic monitoring. The patient's creatinine clearance is determined to be 10-29 mL/min (severe renal impairment). The patient is connected to an electrocardiographic and an initial QTc is determined to be less than 450 ms. If the patient were to be administered multiple sequential oral doses, the physician would have selected an oral sotalol dosing regimen of 120 mg at a 48-hour interval. However, the physician determines the patient should instead be administered an IV sotalol dosing regimen as a substitute for the selected oral dosing regimen. IV doses in an amount of 105 mg sotalol hydrochloride are administered to the patient at 48-hour interval as a substitute for oral dosing. The 105 mg IV dose is administered to the patient over a period of 5 hours. The patient's QTc interval is measured, along with heart rate and blood pressure at selected times to ensure that the patient is tolerating the drug. […] Once it is determined that the patient/subject is capable of tolerating the sotalol, one or more subsequent doses of sotalol hydrochloride in an amount of 105 mg is administered to the subject at a 48-hour interval. The patient's QTc interval can continue to be monitored.
An example sotalol treatment protocol for a patient with atrial flutter (AFL) and persistent atrial fibrillation who is not currently in normal sinus rhythm is described herein. The patient is admitted to a hospital or other facility capable of providing cardiac resuscitation and continuous electrocardiographic monitoring. The patient's creatinine clearance is determined to be ≥90 mL/min. The patient is connected to an electrocardiographic and an initial QTc is determined to be less than 450 ms. […]

[2] = cited from earlier work
[3] = cited from earlier work; remark: listed apart in the source
[4] = Example 2: 75 mg IV over 5 hours at 12-hour interval, CrCl 60-89 mL/min, AF patient in sinus rhythm
[5] = Example 5: 105 mg IV over 5 hours at 48-hour interval, CrCl 10-29 mL/min, VT patient
[6] = Example 6: 150 mg IV over 5 hours at 12-hour interval, CrCl ≥90 mL/min, AFL and persistent AF patient
[7] = Example 7: 112.5 mg IV over 5 hours at 12-hour interval, then escalated to 150 mg, CrCl 60-89 mL/min, PVC patient

SMILES: CC(C)NCC(O)c1ccc(NS(C)(=O)=O)cc1.Cl (centres unmarked) [sotalol hydrochloride, d,1-N-[4-[1-hydroxy-2-[(1-methylethyl)amino]ethyl]phenyl] methane-sulfonamide monohydrochloride]
- QTc interval [1, 4]: ≤ 500 ms
- ΔQTc [1, 4]: less than 20%
- QTc interval [1, 5]: ≤ 500 ms
- ΔQTc [1, 5]: less than 20%
- QTc interval [1, 6]: ≤ 500 ms
- ΔQTc [1, 6]: less than 20%
- QTc interval [1, 7]: ≤ 500 ms
- ΔQTc [1, 7]: less than 20%
- time to steady-state plasma levels and maximum QTc prolongation ([2]; oral administration, twice daily (after 5-6 doses)): 3 days
- bioavailable ([2]; oral, taken on an empty stomach): ~100%
- solubility [3]: soluble in water, propylene glycol, and ethanol
